The source of these data is the NIST ThermoML archive (doi:10.1016/j.fluid.2006.01.017).

Data set [1] is described as follows: refractive index (Na D-line) (dimensionless). The conditions noted are these: 293.2 K; 101.33 kPa; Liquid; Standard Abbe refractometry.
The conditions of data set [2]: 293.2 K; 101.33 kPa; Liquid.

Molecules are shown by their SMILES. ± gives the expanded uncertainty stated by the source.

`CCO` [ethanol]: in data set [1], the refractive index was determined as 1.36 ± 0.0004.
With `CCOC(C)=O` [ethyl acetate], the mass density in data set [2] amounted to 900.6 ± 0.3 kg/m3. The refractive index in data set [1] is 1.3702 ± 0.0004.
